Assay results as given in PMC6022226, “Novel coumarin-6-sulfonamides as apoptotic anti-proliferative agents: synthesis, in vitro biological evaluation, and QSAR studies” (Journal of Enzyme Inhibition and Medicinal Chemistry, 2018).
Like-named read-outs stand apart in the source and are kept apart here.

What was measured:
[1] = tested on: MCF-7 breast cancer; test: In vitro anti-proliferative activity, SRB assay, MCF-7; format: cell-based, human; conditions: mean ± SE of three experiments
Method: (§1) HepG2 liver cancer, MCF-7 breast cancer and Caco-2 cancer cell lines were obtained from the National Cancer Institute (Cairo, Egypt). Caco-2 cells were grown in DMEM while HepG2 and MCF-7 were grown in RPMI-1640. Media were supplemented with 10% heat-inactivated FBS, 50 units/mL of penicillin and 50 µg/mL of streptomycin and maintained at 37 °C in a humidified atmosphere containing 5% CO2. The cells were maintained as a “monolayer culture” by serial subculturing. Cytotoxicity was determined using the sulforhodamine B (SRB) method as previously described by Skehan et al.[50] Exponentially growing cells were collected using 0.25% trypsin-EDTA and seeded in 96-well plates at 1000–2000 cells/well in supplemented DMEM medium. After 24 h, cells were incubated for 72 h with various concentrations of the tested compounds as well as doxorubicin as the reference compound. Following 72 h of treatment, the cells were fixed with 10% trichloroacetic acid for 1 h at 4 °C. Wells were stained for 10 min at room temperature with 0.4% SRB dissolved in 1% acetic acid. The plates were air dried for 24 h, and the dye was solubilized with Tris–HCl for 5 min on a shaker at 1600 rpm. The optical density (OD) of each well was measured spectrophotometrically at 564 nm with an ELISA microplate reader (ChroMate-4300, FL, USA). The IC50 values were calculated according to the equation for Boltzmann sigmoidal concentrationeresponse curve using the nonlinear regression models (GraphPad, Prism Version 5). The results reported are means of at least three separate experiments. Significant differences were analyzed by one-way ANOVA wherein the differences were considered to be significant at p < .05.
(§2) All the newly synthesized target coumarin sulfonamides were evaluated for their in vitro anti-proliferative activity against three human tumor cancer cell lines, HepG2 hepatocellular carcinoma, MCF-7 breast cancer, and Caco-2 colon cancer, using SRB colorimetric assay as described by Skehan et al.^50 Doxorubicin was involved in the experiments as a reference cytotoxic compound.

[2] = tested on: Bcl-2; test: ELISA immunoassay, Bcl-2 expression level in HepG2 cells; format: cell-based, human; conditions: HepG2 cells treated at IC50 concentration
Text: (§3) The levels of the apoptotic markers (Bax, caspase-3) and the anti-apoptotic marker (Bcl-2) were examined using ELISA colorimetric kits per the manufacturer’s protocol and referring to reported instructions[51] ^, [52].
(§4) The Bcl-2 proteins family is mainly responsible for synchronizing the mitochondrial apoptotic pathway, and classified into two major classes: anti-apoptotic proteins such as Bcl-2 protein and the counteracting pro-apoptotic proteins including Bax protein. In this study, we examined the impact of coumarins 13a and 15a on the level of the anti-apoptotic Bcl2 and the level of the pro-apoptotic Bax (Table 3).

[3] = tested on: caspase-3; test: ELISA immunoassay, active caspase-3 level in HepG2 cells; format: cell-based, human; conditions: HepG2 cells treated at IC50 concentration
Text: as §3
As a key executioner protease, caspase-3 is activated by upstream initiator caspases as caspase-9.

[4] = tested on: non-tumorigenic human normal lung fibroblast cell line (WI-38); test: In vitro cytotoxicity towards normal WI-38 cells; format: cell-based
[5] = tested on: Caco-2 colon cancer; test: In vitro anti-proliferative activity, SRB assay, Caco-2; format: cell-based, human
Method: as §1, §2

[6] = tested on: Bax; test: ELISA immunoassay, Bax expression level in HepG2 cells; format: cell-based, human; conditions: HepG2 cells treated at IC50 concentration
Text: as §3, §4

[7] = tested on: HepG2 hepatocellular carcinoma; test: In vitro anti-proliferative activity, SRB assay, HepG2; format: cell-based, human
Method: as §1, §2

[8] = 72 h incubation, read-out: IC50 MCF7
[9] = 72 h incubation, SRB, mean ± SE of three experiments, read-out: IC50 Caco-2
[10] = training set, Table 4, -log IC50 (IC50 in µM)
[11] = 72 h incubation, SRB, mean ± SE of three experiments, read-out: IC50 HepG2
[12] = Homo sapiens, MCF7, 72 h incubation
[13] = Homo sapiens, Caco-2, 72 h incubation, SRB, mean ± SE of three experiments, read-out: IC50 Caco-2
[14] = Homo sapiens, Caco-2, training set, Table 4, -log IC50 (IC50 in µM), read-out: Caco-2 Experimental activity (pIC50) (converted)
[15] = Homo sapiens, HepG2, 72 h, 72 h incubation, SRB, mean ± SE of three experiments, read-out: IC50 HepG2
[16] = Homo sapiens, HepG2, training set, Table 4, -log IC50 (IC50 in µM), read-out: HepG2 Experimental activity (pIC50) (converted)
[17] = Homo sapiens, HepG2, external validation test compounds, Table 5, -log IC50 (IC50 in µM), read-out: HepG2 Experimental activity (pIC50) (converted)

Compound	IC50 [1, 12] [µM]	IC50 [5, 13] [µM]	IC50 [5, 14] [µM]	IC50 [7, 15] [µM]	IC50 [7, 16] [µM]	melting point [°C]	also measured
2-Oxo-N-(4–(1-(2–(5-oxo-4,5-dihydrothiazol-2-yl)hydrazono)ethyl)phenyl)-2H-chromene-6-sulfonamide [Compound 15a]	–	–	–	–	–	–	IC50 [1, 8]: 11 ± 0.96 µM; Bcl-2, folds of control [2]: 0.39 folds; Bcl-2 expression level [2]: 2.73 ng/mg protein; Bcl-2 level, % of control [2]: 38.6%; Caspase-3 (active caspase-3 level) [3]: 0.2625 ng/mg protein; Caspase-3, folds of control [3]: ~5.7 folds; Selectivity index ([4]; WI-38 versus HepG2): 11; IC50 ([4]; normal lung fibroblasts): 55.92 ± 0.39 µM; IC50 [5, 9]: 158 ± 9.39 µM; Caco-2 Experimental activity (pIC50) [5, 10]: −2.1997; Bax expression level [6]: 394.3 Pg/mg protein; Bax, folds of control [6]: 14.3 folds; IC50 [7, 11]: 5.03 ± 0.39 µM; fold increased potency than doxorubicin ([7]; HepG2 IC50 ratio): 1.1 fold; HepG2 Experimental activity (pIC50) ([7]; external validation test compounds, Table 5, -log IC50 (IC50 in µM)): –0.7016
NS(=O)(=O)c1ccc(NS(=O)(=O)c2ccc3oc(=O)ccc3c2)cc1 [Compound 4a, 2-Oxo-N-(4-sulfamoylphenyl)-2H-chromene-6-sulfonamide]	50.7 ± 4.61	193 ± 15.3	193	35.5 ± 2.93	35.5	266 to 268	–
O=c1ccc2cc(S(=O)(=O)Nc3ccc(S(=O)(=O)Nc4ccccn4)cc3)ccc2o1 [Compound 4b, 2-Oxo-N-(4-(N-(pyridin-2-yl)sulfamoyl)phenyl)-2H-chromene-6-sulfonamide]	22.9 ± 2.04	66.9 ± 6.07	66.9	8.08 ± 0.51	8.08	237 to 239	–
CC(=O)c1ccc(NS(=O)(=O)c2ccc3oc(=O)ccc3c2)cc1 [Compound 6, N-(4-acetylphenyl)-2-oxo-2H-chromene-6-sulfonamide]	> 200	81.5 ± 6.89	–	25.6 ± 1.36	–	–	IC50 ([5]; Homo sapiens, Caco-2, external validation test compounds, Table 5, -log IC50 (IC50 in µM), read-out: Caco-2 Experimental activity (pIC50) (converted)): 81.5 µM; IC50 [7, 17]: 25.6 µM
CC(=NNc1ccccc1)c1ccc(NS(=O)(=O)c2ccc3oc(=O)ccc3c2)cc1 [Compound 8a, 2-Oxo-N-(4–(1-(2-phenylhydrazono)ethyl)phenyl)-2H-chromene-6-sulfonamide]	14.3 ± 1.18	8.53 ± 0.72	8.53	27 ± 2.01	27	178 to 180	–
CC(=NNc1ccc([N+](=O)[O-])cc1[N+](=O)[O-])c1ccc(NS(=O)(=O)c2ccc3oc(=O)ccc3c2)cc1 [Compound 8b, N-(4–(1-(2–(2,4-dinitrophenyl)hydrazono)ethyl)phenyl)-2-oxo-2H-chromene-6-sulfonamide]	126 ± 10.9	89.6 ± 7.26	89.6	–	11.8	269 to 270	IC50 ([7]; Homo sapiens, HepG2, 72 h incubation, SRB, mean ± SE of three experiments, read-out: IC50 HepG2): 11.8 ± 1.34 µM
CC(=NNc1c(Cl)cc(Cl)cc1Cl)c1ccc(NS(=O)(=O)c2ccc3oc(=O)ccc3c2)cc1 [Compound 8c, 2-Oxo-N-(4–(1-(2–(2,4,6-trichlorophenyl)hydrazono)ethyl)phenyl)-2H-chromene-6-sulfonamide]	> 200	76.9 ± 6.59	76.9	29.8 ± 2.21	29.8	259 to 260	–
CC(=NNS(=O)(=O)c1ccc(C)cc1)c1ccc(NS(=O)(=O)c2ccc3oc(=O)ccc3c2)cc1 [Compound 8d, 2-Oxo-N-(4–(1-(2-tosylhydrazono)ethyl)phenyl)-2H-chromene-6-sulfonamide]	> 200	16 ± 1.32	16	89.9 ± 7.63	–	163 to 165	IC50 [7, 17]: 89.9 µM
CC(=NNC(N)=S)c1ccc(NS(=O)(=O)c2ccc3oc(=O)ccc3c2)cc1 [Compound 9, 2–(1-(4–(2-Oxo-2H-chromene-6-sulfonamido)phenyl)ethylidene)hydrazine carbothioamide]	> 200	> 200	–	163 ± 10.2	163	253 to 254	–
COc1cccc2c1C(=O)c1c(O)c3c(c(O)c1C2=O)C[C@@](O)(C(=O)CO)C[C@@H]3O[C@H]1C[C@H](N)[C@H](O)[C@H](C)O1 [Doxorubicin, reference compound]	3.18 ± 0.32	4.1 ± 1.37	–	6.9 ± 2.05	–	–	IC50 [7, 11]: 5.43 ± 0.24 µM
N-(4–(1-(2–(4-methyl-5-oxo-4,5-dihydrothiazol-2-yl)hydrazono)ethyl)phenyl)-2-oxo-2H-chromene-6-sulfonamide [Compound 15b]	–	–	–	–	–	–	IC50 [1, 8]: 10.6 ± 1.35 µM; IC50 [5, 9]: 175 ± 12.3 µM; Caco-2 Experimental activity (pIC50) [5, 10]: −2.2428; IC50 [7, 11]: 25.1 ± 2.08 µM; HepG2 Experimental activity (pIC50) [7, 10]: −1.3992

Further lines, with some results ahead:

IC50 [1, 12] [µM]	IC50 [5, 13] [µM]	IC50 [5, 14] [µM]	IC50 [7, 15] [µM]	IC50 [7, 16] [µM]	melting point [°C]	Compound	also measured
13.9 ± 1.19	10.1 ± 0.9	–	> 200	–	257 to 259	CC(=NNc1nc(C)cs1)c1ccc(NS(=O)(=O)c2ccc3oc(=O)ccc3c2)cc1 [Compound 11a, N-(4–(1-(2–(4-methylthiazol-2-yl)hydrazono)ethyl)phenyl)-2-oxo-2H-chromene-6-sulfonamide]	–
63.4 ± 5.69	145 ± 8.02	145	54.3 ± 3.87	54.3	180 to 182	CCOC(=O)c1sc(NN=C(C)c2ccc(NS(=O)(=O)c3ccc4oc(=O)ccc4c3)cc2)nc1C [Compound 11b, Ethyl 4-methyl-2–(2-(1–(4-(2-oxo-2H-chromene-6-sulfonamido)phenyl)ethylidene)hydrazinyl)thiazole-5-carboxylate]	–
34.7 ± 2.94	108 ± 11.4	108	72.5 ± 6.33	72.5	250 to 252	CC(=NNc1nc(C)c(N=Nc2ccc(Cl)cc2)s1)c1ccc(NS(=O)(=O)c2ccc3oc(=O)ccc3c2)cc1 [Compound 11c, N-(4–(1-(2–(5-((4-chlorophenyl)diazenyl)-4-methylthiazol-2-yl)hydrazono)ethyl)phenyl)-2-oxo-2H-chromene-6-sulfonamide]	–
> 200	16.1 ± 1.28	16.1	> 200	–	258 to 259	CC(=NNc1nc(C)c(N=Nc2ccc(C)cc2)s1)c1ccc(NS(=O)(=O)c2ccc3oc(=O)ccc3c2)cc1 [Compound 11d, N-(4–(1-(2–(4-methyl-5-(p-tolyldiazenyl)thiazol-2yl)hydrazono)ethyl)phenyl)-2-oxo-2H-chromene-6-sulfonamide]	–
> 200	96.6 ± 5.37	96.6	11.8 ± 1.16	11.8	201 to 202	CC(=NNc1nc(-c2cc3ccccc3oc2=O)cs1)c1ccc(NS(=O)(=O)c2ccc3oc(=O)ccc3c2)cc1 [Compound 13b, 2-Oxo-N-(4–(1-(2–(4-(2-oxo-2H-chromen-3-yl)thiazol-2-yl)hydrazono)ethyl)phenyl)-2H-chromene-6-sulfonamide]	–
16.3 ± 1.48	46.1 ± 3.17	46.1	7.57 ± 0.66	–	193 to 194	CC(=NNC1=NC(=O)C(CC(=O)O)S1)c1ccc(NS(=O)(=O)c2ccc3oc(=O)ccc3c2)cc1 (stereo not shown) [Compound 15c, 2–(4-Oxo-2–(2-(1–(4-(2-oxo-2H-chromene-6-sulfonamido)phenyl)ethylidene) hydrazinyl)-4,5-dihydrothiazol-5-yl)acetic acid]	IC50 [7, 17]: 7.57 µM
